Laboratory results reported in patent US6046177A, “Sulfoalkyl ether cyclodextrin based controlled release solid pharmaceutical formulations” (Cydex, Inc., priority 1999, dated 2000).

Tests used:
[1] = glibomuride-β-cyclodextrin complex vs. physical mixture; cited from earlier work
[2] = In vitro release of testosterone from tablets (USP apparatus II); assay type: physicochemical; conditions: 1:1 molar TST:SBE7 β-CD; sorbitol/PEG 400/cellulose acetate film; FIG. 8
Description: (FIG. 8) The solid core of the tablet comprised a 1:1 molar ratio of TST and SBE7 β-CD. The film coating of this tablet comprised sorbitol, PEG 400 and cellulose acetate. The release profiles of the physical mixture and complex formulation were compared to that of a baseline TST/fructose-lactose formulation.
The tablet core was prepared with a 1/1 molar ratio of testosterone/(SBE)7 -β-CD. The tablet core consisted of either the testosterone-(SBE)7 -β-CD complex or the physical mixture of the two compounds. The complex was prepared by freeze-drying a testosterone-(SBE)7 -β-CD solution (5-15% in (SBE)7m -β-CD). Non (SBE)7 -β-CD containing tablets were also prepared. […]
Semi-permeable Membrane Preparation The coating formulation was prepared by dissolving 1.0% of sorbitol (Sigma, MO) in 3.7% of double distilled water and 0.4% of PEG 400 (Sigma, MO). […] The membranes were peeled off the surface, checked for cracks and flaws under a light microscope (X70) and their thickness was measured using a Micrometer (Ames, Mass.). […]
The release studies were realized by placing the dissolution die in a USP dissolution apparatus II (Vanderkamp 600, VanKel Industries Inc.) containing 900 ml of water at 37° C., 100 rpm. […] The 100% release was determined by removing the membrane from the die and allowing the drug dissolution to be complete. The samples were analyzed by HPLC for testosterone concentration.

[3] = Release of testosterone from osmotic pumps; assay type: physicochemical; conditions: osmotic pump with (SBE)7m -β-CD vs. sugar mixture or HP-β-CD; FIG. 25
Description: For the preparation of cores, physical mixtures of TS with (SBE)7m -β-CD, HP-β-CD or sugar (physical mixture of lactose and fructose, 1/1) each containing 10 mg TS were compressed at 1 ton/cm^2 for 60 sec using a Carver™ Laboratory Press with a 6.35 mm flat faced punch. The molar ratios of TS to (SBE)7m -β-CD in the physical mixtures ranged from 1:1 to 1:1.43 and that in the physical mixture with HP-β-CD ranged from 1:1 to 1:1.79. The physical mixtures of TS with the β-CD derivatives or sugar were prepared using a mortar and a pestle. The compressed tablet core was placed in a tablet die as described above. […]
The dissolution and release rates of TS from core tablets (no membrane covering) or the osmotic pump devices (core tablets covered by a semipermeable membrane) were measured using a USP apparatus utilizing the paddle method. […] The amount of each osmotic pump agent, (SBE)7m -β-CD, HP-β-CD and sugar, released from the OPT was calculated by difference from the weight of the total ingredients released and the weight of the remaining released components at each sampling time in the study. […] The weight of the released osmotic agent was measured as a residual weight after evaporating and vacuum drying a 200 ml solution sample for 12 hr at 60° C. […]

[4] = In vitro release of methylprednisolone and SBE7 β-CD from tablets (USP apparatus II); assay type: physicochemical
Description: The MP and SBE7 β-CD (present in a 1:7 molar ratio) along with a pharmaceutical carrier were compressed into a solid core which was spray coated with a mixture of ethylcellulose, PEG3350, PEG400 and ethanol to form a 140 μm thick film coating around the solid core. The dissolution profile was determined using USP dissolution apparatus II (100 rpm, 37° C.) and an HPLC assay for methylprednisolone (MP). […] The first formulation, indicated in FIG. 1 by the hollow circles, contains the separately preformed MP-SBE7 β CD freeze-dried complex. The second formulation, indicated by the filled in circles, contains a major portion of uncomplexed MP as a physical mixture with SBE7 β-CD. The third formulation, indicate by the squares, contains a physical mixture of lactose, fructose and MP.
The tablet core was prepared with a 1/7 molar ratio of methylprednisolone/(SBE)7 -β-CD. This ratio was calculated using the previously determined binding constant in order to have sufficient (SBE)7 -β-CD in the tablet core to solubilize all the methylprednisolone present. […] The tablet core consisted of either the methylprednisolone-(SBE)7-β-CD complex or the physical mixture of the two compounds. The complex was prepared by freeze drying a methylprednisolone-(SBE)7 -β-CD solution (5-15% in (SBE)7-β-CD). Non (SBE)7 -β-CD containing tablets were also prepared. They consisted of a 1/7 ratio of methylprednisolone to a 50:50 (w/w) mixture of fructose and lactose (Fischer Scientific, N.J.). The mixtures were ground in a mortar and sieved through a 200 mesh (75 μm) screen under low humidity conditions. The mixtures were stored in a dessicator when not used. Tablets of around 150 mg were compressed into the dissolution die using a Carver Laboratory Press (Fred S. Carver Inc., N.J.) at 1 ton during 1 min.
The coating formulation was prepared by mixing 4.5% of ethylcellulose (Ethocel Standard 10 Premium, Dow Chemicals, Mich.) with an equivalent amount of poly(ethylene glycol) 3350 (PEG 3350, Sigma, MO). 0.9% of PEG 400 (Sigma, MO) and 90.1% of absolute ethanol were added to the mixture. The dispersion was shaken and sonicated until complete dissolution of the solid components. The coating solution was air sprayed (Airbrush, Paasche) on a Teflon surface under constant air flow (40° C.). At the end of the spraying, the membranes were dried under the 40° C. air flow for 5 min. They were then left at room temperature during 24 hours. The membranes were peeled off the Teflon surface, checked for cracks and flaws under a light microscope (X70) and their thickness was measured using a micrometer (Ames, Mass.). The membranes were then secured on the dissolution die containing the tablet, with the face which was sprayed on the Teflon in contact with the tablet surface.
The release studies were realized by placing the dissolution die in a USP dissolution apparatus II (Vanderkamp 600, VanKel Industries Inc.) containing 350 ml of water at 37° C., 100 rpm. Samples were collected at various time points. The 100% release was determined by removing the membrane from the die and allowing the drug dissolution to be complete.

[5] = Release of methylprednisolone from tablets with […] RS/RL coating without pore forming agent (FIG. 15); assay type: physicochemical; conditions: Eudragit RS:RL 9 to 1, approximately 5 wt.% coating
Excerpt: As previously mentioned, it is not required that a pharmaceutical formulation according to the invention comprise a coated core wherein the coat comprises a film forming agent and a pore forming agent. […] In this formulation, the coat comprises a combination of Eudragit™ RS and Eudragit™ RL in a 9 to 1 weight ratio and the coating on the core of the tablet comprises approximately 5 wt.% of the total weight of the tablet. Accordingly, the present invention also provides controlled release pharmaceutical formulations consisting essentially of a core surrounded by a coat which comprises a film forming agent wherein the coat controls the rate of delivery of the drug even absent a pore forming agent in the coating.
The above formulation was prepared by first reducing the particle size of the SBE7 -βCD with a wedgewood mortar and pestle and then passing the powder through a 100 mesh screen. The sodium stearyl fumarate was also sieved through a 100 mesh screen prior to use. The SBE7 -βCD and MP were blended together geometrically in a glass mortar. The CEOLUS™, SUPERTAB™, PRUV™ components were then added in order in sequential steps while mixing. Tablets weighing approximately 250 mg each were compressed by hand on a Stokes B2 tablet press using 7 mm standard cup concave toolings. The tablets were compressed to a hardness of approximately 14 kp. […]

Which “bioavailability of complex vs. physical mixture” value [1] does the source give for `Cc1ccc(S(=O)(=O)NC(=O)NC2C3CCC(C)(C2O)C3(C)C)cc1` (stereo not shown) [glibomuride] here?
Its value is “two to three fold better”.

For `C[C@]12CC[C@H]3[C@@H](CCC4=CC(=O)CC[C@@]43C)[C@@H]1CC[C@@H]2O` [testosterone], which “release profile, physical mixture vs. freeze dried complex” value [2] is on record?
Its value is “exhibited the same release profile as the respective freeze dried mixture”.

And the “release from osmotic pumps” value [3]?
The value was “released a greater amount of TS and at a more acceptable rate than the osmotic pumps containing the sugar mixture or HP-β-CD”.

Which “release profile, MP vs. SBE7 β-CD” value ([4]; 140 μm film, FIG. 2a, 2b) does the source give for `C[C@H]1C[C@@H]2[C@H]([C@@H](O)C[C@@]3(C)[C@H]2CC[C@]3(O)C(=O)CO)[C@@]2(C)C=CC(=O)C=C12` [methylprednisolone] here?
Its value is “substantially the same release profiles”.

And the “release profile, physical mixture vs. freeze dried complex” value ([4]; 200 μm film, FIG. 3a, 3b)?
The value was “a slight difference was noted in the release profiles of the physical mixture versus the freeze dried complex”.

And the “release profile, physical mixture vs. preformed complex” value ([4]; MP:SBE7 β-CD 1:7 molar, 140 μm ethylcellulose/PEG film, FIG. 1, 2)?
Its value is “release profile similar to or substantially similar to the former”.

What about the “effect of MP/SBE7 β-CD ratio on release” value ([4]; film coated tablets, ratios 1/10, 1/7, 1/3, FIG. 7a-7d) of the same compound?
The value was “decreasing the relative amount of SBE7 β-CD decreases the observed release profile for MP”.

And the “release profile, physical mixture vs. complex, uncoated core” value ([4]; no film, FIG. 6)?
The value was “The physical mixture exhibits substantially the same release profiles as the complex”.

And the “release characteristics, physical mixture vs. freeze dried complex” value ([4]; ratios 1/10, 1/7, 1/3, FIG. 7a-7d)?
The value was “substantially the same release characteristics”.

And the “release of MP, coat without pore forming agent” value [5]?
Its value is “MP is released from a tablet formulation”.
